Patent US11147799B2, “Topical pharmaceutical composition containing phenytoin and a (co-) analgesic for the treatment of chronic pain” (Topical Innovations B.V., priority 2016, dated 2021)
Entries after “also recorded” stand apart in the source; their conditions may differ.

Key:
[1] = after oral administration; corresponding tissue; cited from earlier work
neuropathic pain [2] = test: Earlier oral medication of the case patients (case histories); conditions: case history of the individual patient
neuropathic pain [3] = conditions: 21% for placebo; cited from earlier work

| Compound | side effects of earlier oral medication (neuropathic pain [2]) | pain relieving effect of earlier oral medication (words) (neuropathic pain [2]) | further results |
| --- | --- | --- | --- |
| O=C(O)Cc1ccccc1Nc1c(Cl)cccc1Cl [diclofenac] |  |  | Cmax of diclofenac in muscles [1]: 1.16 µg/mL |
| NCC1(CC(=O)O)CCCCC1 [gabapentin] | too much side effects |  | patients who achieved 50% or more pain relief (neuropathic pain [3]): about 35% |
| COc1ccc(C(CN(C)C)C2(O)CCCCC2)cc1 (centres unmarked) [venlafaxine] | induced nausea |  |  |
| CC(C)C[C@H](CN)CC(=O)O [pregabalin] | anxiety and depression; also recorded: too much side effects | without sufficient pain reduction; also recorded: had a pain reducing effect | pain relieving effect of earlier oral medication (words) (neuropathic pain [2]; listed as Pregabalin): did not have any effect |
| CN(C)CCC=C1c2ccccc2CCc2ccccc21 [Amitriptyline] |  | did not have any pain relieving effect |  |
